The values that follow come from patent US9867826B2, “Heterocycles as modulators of kinase activity” (Merck Patent GmbH, priority 2013, dated 2018).

The target in assay [1] is His-AKT (Full Length) (Homo sapiens (Human), UniProt P31749). Description: AKT enzyme assay. The format is biochemical. To be noted: 160 uM ATP. The method, then: A TTP Mosquito liquid handling instrument was used to place 125 nl of the appropriate concentration of inhibitor in 100% DMSO (for a dose response curve calculation) into each well of a 384-well plate. To this reaction components were added to a final volume of 12.5 μl: • 0.1 ng/μl His-AKT (Full Length), (Invitrogen, Part # P2999, Lot #641228C). • 160 uM ATP (Fluka, 02055) • 1 mM DTT (Sigma, D0632) • 1 mM MgCl2 (Sigma, M1028) • 1 μM substrate peptide (sequence FITC-AHA-GRPRTSSFAEG-NH2), synthesized by Tufts Peptide Synthesis service. • 100 mM HEPES pH 7.5 (Calbiochem, 391338) • 0.015% Brij-35 (Sigma, B4184)
Chain of His-AKT (Full Length) (P31749 whole entry): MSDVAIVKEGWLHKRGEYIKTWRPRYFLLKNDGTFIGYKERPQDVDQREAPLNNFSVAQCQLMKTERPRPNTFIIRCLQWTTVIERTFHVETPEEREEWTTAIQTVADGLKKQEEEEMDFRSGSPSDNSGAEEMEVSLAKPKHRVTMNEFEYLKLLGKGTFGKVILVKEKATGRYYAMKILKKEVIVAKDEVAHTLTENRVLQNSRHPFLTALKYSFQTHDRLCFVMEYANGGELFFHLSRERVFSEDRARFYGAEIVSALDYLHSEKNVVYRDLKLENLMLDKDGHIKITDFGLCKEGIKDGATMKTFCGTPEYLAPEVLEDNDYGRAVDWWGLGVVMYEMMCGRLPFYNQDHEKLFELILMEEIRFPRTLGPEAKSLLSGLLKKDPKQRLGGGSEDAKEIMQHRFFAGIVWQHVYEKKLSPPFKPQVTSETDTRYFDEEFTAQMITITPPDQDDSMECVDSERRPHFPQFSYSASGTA
The reaction was incubated for 90 min at 25 C., and then stopped by the addition of 70 μl of Stop buffer (100 mM HEPES pH 7.5, 0.015% Brij-35, 10 mM EDTA (Sigma, E7889)).
The plate was read on a Caliper LC 3000 in an Off-Chip mobility shift assay format, using the following parameters for a 12-sipper chip: screening pressure −2.3 psi, upstream voltage −500, and downstream voltage −3000. These conditions caused unphosphorylated substrate and phosphorylated product peptide to resolve as separate peaks allowing direct measurement of percentage of conversion of substrate to product.
The percent conversion was plotted against concentration of inhibitor to produce a sigmoidal dose response curve, from which an IC50 was calculated.

Assay [2] deals with P70S6K (T412E mutant) (Homo sapiens (Human), UniProt P23443, T412E). The assay is described as follows: P70S6K enzyme assay. The class given is biochemical. To be noted: 24 μM ATP. The method, then:
P70S6K inhibitor compounds were diluted and plated in 96 well plates. A reaction mixture including the following components was then added to the compound plate to initiate the enzyme reaction; P70S6K (3 nM, T412E mutant, Millipore) was mixed with 24 μM ATP in an assay buffer containing 100 mM Hepes (pH 7.5), 5 mM MgCl2, 1 mM DTT, 0.015% Brij and 1 μM of the substrate peptide FITC-AHA-AKRRRLSSLRA-OH (derived from the S6 ribosomal protein sequence, FITC=fluorescein isothiocyanate, AHA=6-aminohexanoic acid). The reaction was incubated for 90 min at 25° C., before the addition of 10 mM EDTA to stop the reaction. The proportion of substrate and product (phosphorylated) peptide was analysed on a Caliper Life Sciences Lab Chip 3000, using a pressure of −1.4 psi, and upstream and downstream voltages of −3000 and −700 respectively. Product peaks were resolved before substrate peaks on the resulting chromatograms.

pIC50: −log10 of the molar value.

Chain of P70S6K (T412E mutant) (P23443 whole entry T412E): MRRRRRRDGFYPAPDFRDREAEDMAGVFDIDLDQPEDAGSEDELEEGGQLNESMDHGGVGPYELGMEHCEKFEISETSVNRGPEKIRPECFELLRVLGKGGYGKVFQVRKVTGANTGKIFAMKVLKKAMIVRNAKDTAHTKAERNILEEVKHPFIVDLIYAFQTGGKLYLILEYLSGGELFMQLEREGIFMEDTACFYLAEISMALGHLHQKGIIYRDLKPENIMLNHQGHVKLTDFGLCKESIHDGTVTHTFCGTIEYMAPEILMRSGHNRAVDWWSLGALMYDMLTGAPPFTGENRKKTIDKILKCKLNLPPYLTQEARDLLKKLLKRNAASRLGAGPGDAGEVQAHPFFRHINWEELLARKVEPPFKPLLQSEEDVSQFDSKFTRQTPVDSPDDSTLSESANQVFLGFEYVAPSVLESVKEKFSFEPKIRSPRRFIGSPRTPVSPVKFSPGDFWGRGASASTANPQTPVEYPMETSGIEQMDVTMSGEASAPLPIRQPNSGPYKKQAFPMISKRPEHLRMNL

For `CC(C)c1c(N)ncnc1N1CC[C@@H](c2nc(-c3ccc(F)c(C(F)(F)F)c3)cn2CCN)[C@@H](F)C1` (racemic) [Compound 33, 6-{cis-4-[1-(2-Amino-ethyl)-4-(4-fluoro-3-trifluoromethyl-phenyl)-1H-imidazol-2-yl]-3-fluoro-piperidin-1-yl}-5-isopropyl-pyrimidin-4-ylamine], the pIC50 in assay [1] and in assay [2] was 8.00 to 9.00 throughout.
Take `Cc1cc(-c2cn(CCN3CCC3)c([C@@H]3CCN(c4ncnc(N)c4C(C)C)C[C@@H]3F)n2)ccc1F` (single isomer, unassigned) [Compound 35]: the pIC50 in assay [1] and in assay [2] was 8.00 to 9.00 throughout.
For `CCOc1c(N)ncnc1N1CC[C@@H](c2nc(-c3ccc(F)c(C(F)(F)F)c3)cn2CCN2CCC2)[C@@H](F)C1` (single isomer, unassigned) [Compound 22], the negative logarithm of the IC50 (pIC50) in assay [1] and in assay [2] was 8.00 to 9.00 each time.
As to `CC(C)c1c(N)ncnc1N1CC[C@@H](c2nc(-c3ccc(F)c(C(F)(F)F)c3)cn2CCN(C)C)[C@@H](F)C1` (racemic) [Compound 17, 6-{cis-4-[1-(2-Dimethylamino-ethyl)-4-(4-fluoro-3-trifluoromethyl-phenyl)-1H-imidazol-2-yl]-3-fluoro-piperidin-1-yl}-5-isopropyl-pyrimidin-4-ylamine], the pIC50 in assay [1] was less than 8.00; in assay [2] it was 8.00 to 9.00.
On to `Cc1cc(-c2cn(CCN3CCC3)c(C3(O)CCN(c4ncnc(N)c4Cl)CC3)n2)ccc1F` [Compound 47, 1-(6-Amino-5-chloro-pyrimidin-4-yl)-4-[1-(2-azetidin-1-yl-ethyl)-4-(4-fluoro-3-methyl-phenyl)-1H-imidazol-2-yl]-piperidin-4-ol], for which the pIC50 in assay [1] and in assay [2] was 8.00 to 9.00 each time.
As to `Cc1cc(-c2cn(CCN3CCC3)c([C@@H]3CCN(c4ncnc(N)c4C(C)C)C[C@@H]3F)n2)ccc1F` (racemic) [Compound 24, 6-{cis-4-[1-(2-Azetidin-1-yl-ethyl)-4-(4-fluoro-3-methyl-phenyl)-1H-imidazol-2-yl]-3-fluoro-piperidin-1-yl}-5-isopropyl-pyrimidin-4-ylamine], the pIC50 in assay [1] and in assay [2] was 8.00 to 9.00 each time.
Consider `CNCCn1cc(-c2ccc(F)c(C)c2)nc1[C@@H]1CCN(c2ncnc(N)c2C(C)C)C[C@@H]1F` (racemic) [Compound 38, 6-{cis-3-Fluoro-4-[4-(4-fluoro-3-methyl-phenyl)-1-(2-methylamino-ethyl)-1H-imidazol-2-yl]-piperidin-1-yl}-5-isopropyl-pyrimidin-4-ylamine], for which the pIC50 in assay [1] and in assay [2] was 8.00 to 9.00 throughout.
As for `CC(C)c1c(N)ncnc1N1CC[C@@H](c2nc(-c3ccc(F)c(C(F)(F)F)c3)c[nH]2)[C@@H](F)C1` (racemic) [Compound 26, 6-{cis-3-Fluoro-4-[4-(4-fluoro-3-trifluoromethyl-phenyl)-1H-imidazol-2-yl]-piperidin-1-yl}-5-isopropyl-pyrimidin-4-ylamine], the figures for the pIC50 in assay [1] and in assay [2] were less than 8.00 and 8.00 to 9.00, respectively.
`CN(C)CCn1cc(-c2ccc(F)c(C(F)(F)F)c2)nc1[C@H]1CCN(c2ncnc(N)c2C(N)=O)C[C@H]1F` (single isomer, unassigned) [Compound 20]: the pIC50 in assay [1] and in assay [2] was 8.00 to 9.00 each time.
As to `CN(C)CCn1cc(-c2ccc(F)c(C(F)(F)F)c2)nc1[C@@H]1CCN(c2ncnc(N)c2Cl)C[C@@H]1F` (racemic) [Compound 25], the pIC50 in assay [1] and in assay [2] was 8.00 to 9.00 each time.
For `CC(C)c1c(N)ncnc1N1CC[C@H](c2nc(-c3ccc(F)c(C(F)(F)F)c3)cn2CCN(C)C)[C@H](F)C1` (single isomer, unassigned) [Compound 31], the results for the pIC50 in assay [1] and in assay [2] were less than 8.00 and 8.00 to 9.00, respectively.
On to `Cc1cc(-c2cn(CC3CNC3)c([C@@H]3CCN(c4ncnc(N)c4C(C)C)C[C@@H]3F)n2)ccc1F` (racemic) [Compound 41, 6-{cis-4-[1-Azetidin-3-ylmethyl-4-(4-fluoro-3-methyl-phenyl)-1H-imidazol-2-yl]-3-fluoro-piperidin-1-yl}-5-isopropyl-pyrimidin-4-ylamine], for which the pIC50 in assay [1] and in assay [2] was 8.00 to 9.00 in each case.
As to `Cc1cc(-c2cn(CCNC(C)C)c([C@@H]3CCN(c4ncnc(N)c4C(C)C)C[C@@H]3F)n2)ccc1F` (racemic) [Compound 37, 6-{cis-3-Fluoro-4-[4-(4-fluoro-3-methyl-phenyl)-1-(2-isopropylamino-ethyl)-1H-imidazol-2-yl]-piperidin-1-yl}-5-isopropyl-pyrimidin-4-ylamine], the pIC50 in assay [1] and in assay [2] was 8.00 to 9.00 in each case.
In the case of `Cc1cc(-c2cn(CCN3CCC3)c(C3(O)CCN(c4ncnc(N)c4C#N)CC3)n2)ccc1F` [Compound 44, 4-Amino-6-{4-[1-(2-azetidin-1-yl-ethyl)-4-(4-fluoro-3-methyl-phenyl)-1H-imidazol-2-yl]-4-hydroxy-piperidin-1-yl}-pyrimidine-5-carbonitrile], the negative-log IC50 (pIC50) in assay [1] and in assay [2] was 8.00 to 9.00 throughout.
For `Cc1cc(-c2cn(CCN3CCC3)c(C3CCN(c4ncnc(N)c4C#N)CC3(F)F)n2)ccc1F` (stereo not shown) [Compound 48, 4-Amino-6-{4-{1-(2-azetidin-1-yl-ethyl)-4-(4-fluoro-3-methyl-phenyl)-1H-imidazol-2-yl}-3,3-difluoro-piperidin-1-yl}-pyrimidine-5-carbonitrile], the pIC50 in assay [1] and in assay [2] was 8.00 to 9.00 each time.
In the case of `Cc1cc(-c2cn(CCN3CCC3)c([C@@H]3CCN(c4ncnc(N)c4C(N)=O)C[C@@H]3F)n2)ccc1F` (relative stereo) [Compound 19, 4-Amino-6-{cis-4-[1-(2-azetidin-1-yl-ethyl)-4-(4-fluoro-3-methyl-phenyl)-1H-imidazol-2-yl]-3-fluoro-piperidin-1-yl}-pyrimidine-5-carboxylic acid amide], the pIC50 in assay [1] and in assay [2] was 8.00 to 9.00 throughout.
For `N#Cc1c[nH]c2ncnc(N3CC[C@@H](c4nc(-c5ccc(F)c(C(F)(F)F)c5)cn4CCN4CCC4)[C@@H](F)C3)c12` (racemic) [Compound 42], the pIC50 in assay [1] and in assay [2] was 8.00 to 9.00 each time.
With `Cc1cc(-c2cn(CCN3CCC3)c([C@@H]3CCN(c4ncnc(N)c4OC(C)C)C[C@@H]3F)n2)ccc1F` (racemic) [Compound 39, 6-{cis-4-[1-(2-Azetidin-1-yl-ethyl)-4-(4-fluoro-3-methyl-phenyl)-1H-imidazol-2-yl]-3-fluoro-piperidin-1-yl}-5-isopropoxy-pyrimidin-4-ylamine], the pIC50 in assay [1] and in assay [2] was 8.00 to 9.00 each time.
Take `Cc1cc(-c2cn(CCN(C)C)c([C@H]3CCN(c4ncnc(N)c4Cl)C[C@H]3F)n2)ccc1F` (racemic) [Compound 12, 5-chloro-6-{3,4-cis-4-[1-(2-dimethylamino-ethyl)-4-(4-fluoro-3-methyl-phenyl)-1H-imidazol-2-yl]-3-fluoro-piperidin-1-yl}-pyrimidin-4-ylamine]: the pIC50 in assay [1] and in assay [2] was 8.00 to 9.00 throughout.
As to `NCCn1cc(-c2ccc(F)c(C(F)(F)F)c2)nc1[C@@H]1CCN(c2ncnc(N)c2Cl)C[C@@H]1F` (racemic) [Compound 36], the pIC50 in assay [1] and in assay [2] was 8.00 to 9.00 in each case.

What is called pIC50 is the negative decadic logarithm of the IC50, by convention in mol/L.
